From patent publication US20260242360A1, “Novel Compound, and Pharmaceutical Composition for Prevention or Treatment of Cancer or Tumors Comprising Same” (Daewoong Pharmaceutical Co., Ltd., priority 2023, published 2026)

Key:
Format in all cases: cell-based
[1] = test system: transcription factor TEAD; assay: Activity inhibition test of transcription factor TEAD (ONE-Glo luciferase assay, Hippo Pathway TEAD reporter-MCF7 cell line); settings: Homo sapiens; TEAD Reporter-MCF7 cells, 24 hours treatment, luciferase luminescence
Description: The transcription factor TEAD activity of the compounds prepared in Examples was measured by the ONE-Glo™ Luciferase assay (Promega, Catalog #E6110) method using the Hippo Pathway TEAD reporter-MCF7 recombinant cell line (BPS Bioscience, Catalog #60618).
Specifically, the TEAD Reporter-MCF7 cell line contains the firefly luciferase gene whose expression is regulated under the control of TEAD response elements in the MCF7, which is a human breast cancer cell line. In the cell line, a non-phosphorylated YAP/TAZ exists in the nucleus in a non-stressed condition, which continuously induces expression of the luciferase reporter.
TEAD Reporter-MCF7 cells were prepared in 100 μL of cell culture medium (MEM medium, 10% FBS, 1% P/S, 400 μg/mL Geneticin, 1% […], 1 mM NA pyruvate, 10 μg/mL Insulin) in a white clear bottom 96-well microplate. The prepared plate was incubated in a 5% CO2 incubator at 37° C. for 24 hours, and then the previously prepared compounds of Examples were finally treated at concentrations of 0.0005, 0.005, 0.05, 0.5 and 5 μM, which were repeated three times for all treatment solutions. The plates treated with the compounds of Examples were incubated in a 5% CO2 incubator at 37° C. for 24 hours. 100 μL/well of the substrate aqueous solution containing luciferin was added to a white clear-bottom 96 well microplate, thereby initiating an enzyme reaction. The reaction was performed at room temperature for 5 minutes, and the luminescence (integration time 1000 ms) was measured using a Flexstation3 multi-mode microplate reader. In accordance with the instructions for the ONE-Glo™ Luciferase Assay, the luciferase enzyme activity, which represents the activity of the transcription factor TEAD, was measured by a chemiluminescence method, and the inhibitory activity of the compound according to the present disclosure was calculated. The results of each compound were analyzed using Microsoft Excel, and the IC50 values were calculated by GraphPad Prism software.

NCI-H226 cells = assay: Cell growth inhibition test (CellTiter-Glo), NCI-H226; settings: Homo sapiens, NCI-H226 cell line
Description: (§1) The cell growth for the compounds prepared in Examples was measured by CellTiter-Glo® Luminescednt Cell Viability (Promega, Catalog #G7571) method using NCI-H226 (addexbio), NCI-H28 (Korea Cell Line Bank) cell lines. This evaluation method is a method in which when luciferase enzyme is activated by ATP flowing out from living cells, it reacts with a luciferin substrate, and the enzyme activity at this time is measured to confirm cell viability.
(§2) Specifically, NCI-H226, and NCI-H28 cells were prepared in 100 μL of cell culture medium (RPMI medium, 10% FBS, 1% P/S, 4.5 g/L D-Glucose, 2.383 g/L HEPES Buffer, L-Glutamine, 1.5 g/L Sodium Bicarbonate, 110 mg/L Sodium pyruvate) in a white clear bottom 96-well microplate. The prepared plate was incubated in a 5% CO2 incubator at 37° C. for 24 hours, and then the previously prepared compounds of Examples were finally treated at concentrations of 0.0005, 0.005, 0.05, 0.5 and 5 μM, which was repeated three times for all treatment solutions.
(§3) The plates treated with the compounds of Examples were incubated in a 5% CO2 incubator at 37° C. 100 μL/well of the substrate aqueous solution containing luciferin was added to a white clear-bottom 96 well microplate, thereby initiating an enzyme reaction. The reaction was performed at room temperature in the dark for 10 minutes, and the luminescence was measured using a Flexstation3 multi-mode microplate reader. In accordance with the instructions for the CellTiter-Glo™ Luminescednt Cell Viability, the luciferase enzyme activity, which represents the amount of ATP, was measured by a chemiluminescence method, and the inhibitory activity of the compounds according to the present disclosure was calculated. The results of each compound were analyzed using Microsoft Excel, and the IC50 values were calculated using GraphPad Prism software.

NCI-H28 cells = assay: Cell growth inhibition test (CellTiter-Glo), NCI-H28; settings: Homo sapiens, NCI-H28 cell line
Description: as §1, §2, §3

IC50 [1] [nM]	IC50 (NCI-H226 cells) [nM]	IC50 (NCI-H28 cells) [nM]	Compound
79	22.5	2800	C=CC(=O)Nc1cc(-c2cn(C)cn2)c2[nH]c(-c3ccc(Cl)cc3F)cc2c1 [Example 12, N-(2-(4-chloro-2-fluorophenyl)-7-(1-methyl-1H-imidazol-4-yl)-1H-indol-5-yl)acrylamide]
36	21.9	> 5000	Cn1cnc(-c2cc(C(=O)O)cc3cc(-c4ccc(Cl)c(F)c4)[nH]c23)c1 [Example 39, 2-(4-chloro-3-fluorophenyl)-7-(1-methyl-1H-imidazol-4-yl)-1H-indole-5-carboxylic acid]
39	65	4140	C=CC(=O)Nc1cc(-c2cn(C)cn2)c2[nH]c(-c3ccc(C(F)(F)F)cc3)cc2c1 [Example 2, N-(7-(1-methyl-1H-imidazol-4-yl)-2-(4-(trifluoromethyl)phenyl)-1H-indol-5-yl)acrylamide]
15	8.4	2300	C=CC(=O)Nc1cc(-c2ccn(C)n2)c2[nH]c(-c3ccc(Cl)cc3)cc2c1 [Example 28, N-(2-(4-chlorophenyl)-7-(1-methyl-1H-pyrazol-3-yl)-1H-indol-5-yl)acrylamide]
26	134	759	Cn1cnc(-c2cc(C(=O)O)cc3cc(-c4ccc(Cl)cc4)[nH]c23)c1 [Example 37, 2-(4-chlorophenyl)-7-(1-methyl-1H-imidazol-4-yl)-1H-indole-5-carboxylic acid]
23	7.6	1360	C=CC(=O)Nc1cc(-c2ccn(C)n2)c2[nH]c(-c3ccc(F)cc3)cc2c1 [Example 32, N-(2-(4-fluorophenyl)-7-(1-methyl-1H-pyrazol-3-yl)-1H-indol-5-yl)acrylamide]
5.9	4.4	4000	C=CC(=O)Nc1cc(-c2cn(C)cn2)c2[nH]c(-c3cc(F)c(F)c(F)c3)cc2c1 [Example 6, N-(7-(1-methyl-1H-imidazol-4-yl)-2-(3,4,5-trifluorophenyl)-1H-indol-5-yl)acrylamide]
90	79	1360	C=CC(=O)Nc1cc(-c2cn(C)cn2)c2[nH]c(-c3cc(F)c(Cl)c(F)c3)cc2c1 [Example 46, N-(2-(4-chloro-3,5-difluorophenyl)-7-(1-methyl-1H-imidazol-4-yl)-1H-indol-5-yl)acrylamide]
6.4	4.2	> 5000	C=CC(=O)Nc1cc(-c2cn(C)cn2)c2[nH]c(-c3ccc(F)cc3F)cc2c1 [Example 5, N-(2-(2,4-difluorophenyl)-7-(1-methyl-1H-imidazol-4-yl)-1H-indol-5-yl)acrylamide]
27	15.4	> 5000	C=CC(=O)Nc1cc(-c2cn(CC)cn2)c2[nH]c(-c3cc(F)c(F)c(F)c3)cc2c1 [Example 50, N-(7-(1-ethyl-1H-imidazol-4-yl)-2-(3,4,5-trifluorophenyl)-1H-indol-5-yl)acrylamide]
3.5	2.5	1530	C=CC(=O)Nc1cc(-c2cn(C)cn2)c2[nH]c(-c3ccc(F)cc3)cc2c1 [Example 3, N-(2-(4-fluorophenyl)-7-(1-methyl-1H-imidazol-4-yl)-1H-indol-5-yl)acrylamide]
126	339	553	C=CC(=O)Nc1cc(-c2ccccn2)c2[nH]c(-c3ccc(Cl)c(Cl)c3)cc2c1 [Example 30, N-(2-(3,4-dichlorophenyl)-7-(pyridin-2-yl)-1H-indol-5-yl)acrylamide]
346	58	868	C=CC(=O)Nc1cc(-c2cn(C)cn2)c2[nH]c(-c3ccc(Br)cc3)cc2c1 [Example 52, N-(2-(4-bromophenyl)-7-(1-methyl-1H-imidazol-4-yl)-1H-indole-5-yl)acrylamide]
51	24.3	4910	C=CC(=O)Nc1cc(-c2ccn(C)n2)c2[nH]c(-c3ccc(F)cc3F)cc2c1 [Example 33, N-(2-(2,4-difluorophenyl)-7-(1-methyl-1H-pyrazol-3-yl)-1H-indol-5-yl)acrylamide]
60	20	2470	C=CC(=O)Nc1cc(-c2cn(C)cn2)c2[nH]c(-c3cccc(Cl)c3)cc2c1 [Example 10, N-(2-(3-chlorophenyl)-7-(1-methyl-1H-imidazol-4-yl)-1H-indol-5-yl)acrylamide]
30	10	4400	C=CC(=O)Nc1cc(-c2cn(C)cn2)c2[nH]c(-c3ccccc3)cc2c1 [Example 4, N-(7-(1-methyl-1H-imidazol-4-yl)-2-phenyl-1H-indol-5-yl)acrylamide]
49	25.1	2300	C=CC(=O)Nc1cc(-c2cn(C)cn2)c2[nH]c(-c3ccc(F)c(C)c3)cc2c1 [Example 14, N-(2-(4-fluoro-3-methylphenyl)-7-(1-methyl-1H-imidazol-4-yl)-1H-indol-5-yl)acrylamide]
48	7.6	2540	C=CC(=O)Nc1cc(-c2cn(CC)cn2)c2[nH]c(-c3ccc(F)cc3)cc2c1 [Example 51, N-(7-(1-ethyl-1H-imidazol-4-yl)-2-(4-fluorophenyl)-1H-indol-5-yl)acrylamide]
100	137	> 5000	Cn1cnc(-c2cc(C(=O)O)cc3cc(-c4ccc(F)cc4)[nH]c23)c1 [Example 35, 2-(4-fluorophenyl)-7-(1-methyl-1H-imidazol-4-yl)-1H-indole-5-carboxylic acid]
236	> 5000	2220	Cn1cnc(-c2cc(NS(C)(=O)=O)cc3cc(-c4ccc(Cl)cc4)[nH]c23)c1 [Example 21, N-(2-(4-chlorophenyl)-7-(1-methyl-1H-imidazol-4-yl)-1H-indol-5-yl)methanesulfonamide]
110	57	950	C=CC(=O)Nc1cc(-c2cn(C)cn2)c2[nH]c(-c3ccc(Cl)c(Cl)c3)cc2c1 [Example 8, N-(2-(3,4-dichlorophenyl)-7-(1-methyl-1H-imidazol-4-yl)-1H-indol-5-yl)acrylamide]
9.4	21	> 5000	C=CC(=O)Nc1cc(-c2cn(C)cn2)c2[nH]c(-c3ccc(Cl)cc3)cc2c1 [Example 1, N-(2-(4-chlorophenyl)-7-(1-methyl-1H-imidazol-4-yl)-1H-indol-5-yl)acrylamide]
37	21.7	1900	C=CC(=O)Nc1cc(-c2cn(C)cn2)c2[nH]c(-c3ccc(F)c(Cl)c3)cc2c1 [Example 44, N-(2-(3-chloro-4-fluorophenyl)-7-(1-methyl-1H-imidazol-4-yl)-1H-indol-5-yl)acrylamide]
30	12	1770	C=CC(=O)Nc1cc(-c2ccccn2)c2[nH]c(-c3ccc(F)cc3)cc2c1 [Example 31, N-(2-(4-fluorophenyl)-7-(pyridin-2-yl)-1H-indol-5-yl)acrylamide]
54	7.8	> 5000	Cn1cnc(-c2cc(C(=O)O)cc3cc(-c4ccc(F)c(F)c4)[nH]c23)c1 [Example 43, 2-(3,4-difluorophenyl)-7-(1-methyl-1H-imidazol-4-yl)-1H-indole-5-carboxylic acid]
